Assay [1] is described as follows: DRUGMATRIX: Serotonin (5-Hydroxytryptamine) 5-HT3 radioligand binding (ligand: [3H] GR-65630). It is filed as cell membranes, Membrane. Particulars: hek293; Not Active = under 50% inhibition at 10 µM.
For another assay, the target named is T1, Thromboxane-A synthase (Homo sapiens, UniProt P24557).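 Note: enzyme inhibition assay with PGH2 supplied as substrate; in other assays of this panel Not Active means under 50% inhibition at 10 µM.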
T1 sequence (P24557 whole entry): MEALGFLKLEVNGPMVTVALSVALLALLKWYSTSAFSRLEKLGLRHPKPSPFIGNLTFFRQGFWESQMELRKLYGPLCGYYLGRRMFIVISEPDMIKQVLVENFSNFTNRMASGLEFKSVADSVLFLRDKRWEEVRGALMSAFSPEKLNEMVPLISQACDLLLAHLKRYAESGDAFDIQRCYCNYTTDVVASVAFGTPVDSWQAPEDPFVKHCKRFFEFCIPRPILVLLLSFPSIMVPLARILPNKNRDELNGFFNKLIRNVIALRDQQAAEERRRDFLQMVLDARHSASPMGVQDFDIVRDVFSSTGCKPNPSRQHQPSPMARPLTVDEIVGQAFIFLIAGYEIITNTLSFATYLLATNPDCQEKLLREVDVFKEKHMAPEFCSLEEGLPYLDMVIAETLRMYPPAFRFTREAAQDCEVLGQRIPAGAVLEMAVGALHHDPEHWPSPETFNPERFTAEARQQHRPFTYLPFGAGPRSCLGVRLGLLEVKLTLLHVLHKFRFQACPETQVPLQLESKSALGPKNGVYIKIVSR
The assay is described as follows: biochemical. It counts as tissue-based, Platelet.

In assay [2] the target is T2, Vasoactive intestinal polypeptide receptor 1 (Homo sapiens, UniProt P32241). Note: in other assays of this panel Not Active means under 50% inhibition at 10 µM.
T2 sequence (P32241 whole entry): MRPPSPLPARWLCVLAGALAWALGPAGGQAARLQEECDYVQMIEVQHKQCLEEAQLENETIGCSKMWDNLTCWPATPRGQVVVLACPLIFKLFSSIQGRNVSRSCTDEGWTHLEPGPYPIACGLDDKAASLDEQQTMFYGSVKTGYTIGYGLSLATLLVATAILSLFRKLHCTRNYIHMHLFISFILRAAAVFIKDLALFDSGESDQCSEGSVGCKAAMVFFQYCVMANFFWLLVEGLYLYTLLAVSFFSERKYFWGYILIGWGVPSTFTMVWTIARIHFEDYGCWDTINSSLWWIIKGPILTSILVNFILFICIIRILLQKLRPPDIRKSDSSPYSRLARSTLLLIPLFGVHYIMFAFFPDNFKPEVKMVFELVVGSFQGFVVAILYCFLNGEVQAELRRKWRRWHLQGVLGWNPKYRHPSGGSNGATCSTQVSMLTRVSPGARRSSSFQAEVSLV
It counts as cell membranes, Membrane. Particulars: ht-29.

Assay [3] has as its target Prostaglandin G/H synthase 1 (Homo sapiens, UniProt P23219). The assay is described as follows: biochemical. It counts as tissue-based, Platelet.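 Note: inhibition of COX-1 enzyme activity, with arachidonic acid supplied as substrate; in other assays of this panel Not Active means under 50% inhibition at 10 µM.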
Assay [4] concerns the target T3, Polyunsaturated fatty acid lipoxygenase ALOX15 (Oryctolagus cuniculus, UniProt P12530).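 Note: inhibition of 15-lipoxygenase enzyme activity measured with linoleic acid as the substrate; in other assays of this panel Not Active means under 50% inhibition at 10 µM.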
T3 sequence (P12530 whole entry): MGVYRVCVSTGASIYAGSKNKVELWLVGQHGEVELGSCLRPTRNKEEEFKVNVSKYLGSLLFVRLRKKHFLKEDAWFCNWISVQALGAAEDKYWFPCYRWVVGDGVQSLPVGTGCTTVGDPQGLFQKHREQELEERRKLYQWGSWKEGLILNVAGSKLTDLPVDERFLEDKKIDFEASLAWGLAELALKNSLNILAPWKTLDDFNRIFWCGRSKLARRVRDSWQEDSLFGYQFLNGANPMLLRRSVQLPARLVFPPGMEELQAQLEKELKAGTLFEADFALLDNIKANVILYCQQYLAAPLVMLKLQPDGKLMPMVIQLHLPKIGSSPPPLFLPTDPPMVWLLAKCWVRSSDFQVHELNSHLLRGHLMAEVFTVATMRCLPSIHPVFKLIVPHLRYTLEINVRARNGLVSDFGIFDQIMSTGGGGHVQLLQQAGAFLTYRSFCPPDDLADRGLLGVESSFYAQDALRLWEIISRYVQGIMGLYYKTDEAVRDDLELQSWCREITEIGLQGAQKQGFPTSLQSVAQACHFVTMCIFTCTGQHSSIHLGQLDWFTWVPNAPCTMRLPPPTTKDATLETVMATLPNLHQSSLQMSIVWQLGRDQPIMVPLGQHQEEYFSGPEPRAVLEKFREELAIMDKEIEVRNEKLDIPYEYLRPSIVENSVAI
The assay is described as follows: biochemical. It is filed as tissue-based, Reticulocytes.

The next assay has as its target Melanocortin receptor 3 (Homo sapiens, UniProt P41968). It is filed as cell membranes, HEK293, Membrane. Particulars: hek293. Note: in other assays of this panel Not Active means under 50% inhibition at 10 µM.
The target in assay [5] is T4, Amine oxidase [flavin-containing] A (Homo sapiens, UniProt P21397).
T4 sequence (P21397 whole entry): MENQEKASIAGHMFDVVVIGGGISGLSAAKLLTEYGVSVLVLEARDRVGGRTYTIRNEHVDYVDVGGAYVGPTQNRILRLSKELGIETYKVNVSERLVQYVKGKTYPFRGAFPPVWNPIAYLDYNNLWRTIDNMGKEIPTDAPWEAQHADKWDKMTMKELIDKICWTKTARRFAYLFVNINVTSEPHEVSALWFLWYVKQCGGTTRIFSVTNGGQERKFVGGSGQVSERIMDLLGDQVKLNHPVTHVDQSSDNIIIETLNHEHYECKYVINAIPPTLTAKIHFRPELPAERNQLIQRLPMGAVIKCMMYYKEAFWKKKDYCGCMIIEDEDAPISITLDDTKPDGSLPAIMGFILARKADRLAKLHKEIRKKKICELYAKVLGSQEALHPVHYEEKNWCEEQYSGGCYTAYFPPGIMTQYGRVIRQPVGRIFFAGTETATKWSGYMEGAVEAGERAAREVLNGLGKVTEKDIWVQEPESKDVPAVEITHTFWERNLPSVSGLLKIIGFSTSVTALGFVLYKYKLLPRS
The experiment in a line: DRUGMATRIX: Monoamine Oxidase MAO-A enzyme inhibition (substrate: Kynuramine). More on the design: species or system BTI-TN-5B1-4. The conditions noted are these: Not Active = under 50% inhibition at 10 µM.

For assay [6], the target named is Protein kinase C alpha type (Homo sapiens, UniProt P17252). It is filed as cell-based. The conditions noted are these: sf9.

The source of these data is ChEMBL document CHEMBL1909046, “DrugMatrix in vitro pharmacology data”.

Chain of Melanocortin receptor 3 (P41968 whole entry): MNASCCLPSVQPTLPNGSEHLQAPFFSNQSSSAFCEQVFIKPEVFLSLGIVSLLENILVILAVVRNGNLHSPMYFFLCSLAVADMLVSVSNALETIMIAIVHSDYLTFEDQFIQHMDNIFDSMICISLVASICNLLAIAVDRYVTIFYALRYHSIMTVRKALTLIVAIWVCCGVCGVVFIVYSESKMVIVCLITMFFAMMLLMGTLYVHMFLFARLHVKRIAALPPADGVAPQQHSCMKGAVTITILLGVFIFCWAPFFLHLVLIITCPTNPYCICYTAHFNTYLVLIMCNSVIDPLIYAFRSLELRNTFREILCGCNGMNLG
Chain of Prostaglandin G/H synthase 1 (P23219 whole entry): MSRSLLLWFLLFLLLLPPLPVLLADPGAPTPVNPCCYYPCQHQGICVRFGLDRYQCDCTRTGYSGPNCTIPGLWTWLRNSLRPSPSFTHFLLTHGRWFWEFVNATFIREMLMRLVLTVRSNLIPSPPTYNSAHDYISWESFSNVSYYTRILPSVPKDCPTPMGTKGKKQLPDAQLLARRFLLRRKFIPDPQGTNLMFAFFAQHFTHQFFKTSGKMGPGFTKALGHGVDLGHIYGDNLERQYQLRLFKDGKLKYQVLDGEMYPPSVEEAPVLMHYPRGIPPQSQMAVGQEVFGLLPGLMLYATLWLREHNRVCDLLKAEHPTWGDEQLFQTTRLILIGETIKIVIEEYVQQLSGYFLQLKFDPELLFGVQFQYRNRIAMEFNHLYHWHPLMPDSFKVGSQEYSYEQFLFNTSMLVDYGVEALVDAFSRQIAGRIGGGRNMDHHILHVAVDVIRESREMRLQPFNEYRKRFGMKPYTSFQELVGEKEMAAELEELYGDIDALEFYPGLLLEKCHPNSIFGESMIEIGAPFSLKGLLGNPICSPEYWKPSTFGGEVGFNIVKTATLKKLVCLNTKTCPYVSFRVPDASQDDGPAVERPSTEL

By IC50 is commonly meant the concentration that inhibits the measured activity by half. In the case of CARBOXYMETHYLCELLULOSE, the IC50 entry (in assay [1]; against Thromboxane-A synthase (platelet); in assay [2]; in assay [3] (platelet); in assay [4] (reticulocytes); on Melanocortin receptor 3) was “Not Active” in each case. Also, the 50% inhibitory concentration (IC50) result in assay [5] (bti-tn-5b1-4) and in assay [6] was “Not Active” throughout. The Ki result (in assay [1]; at Thromboxane-A synthase (platelet); in assay [2]; in assay [3] (platelet); in assay [4] (reticulocytes); at Melanocortin receptor 3) was “Not Active” in each case. The Ki entry in assay [5] (bti-tn-5b1-4) and in assay [6] was “Not Active” in each case.
Take `NC(=O)CN1CCCC1=O`: the IC50 entry (in assay [1]; against Thromboxane-A synthase (platelet); in assay [2]; in assay [3] (platelet); in assay [4] (reticulocytes); against Melanocortin receptor 3) was “Not Active” throughout. For the same compound, the IC50 result in assay [5] (bti-tn-5b1-4) and in assay [6] was “Not Active” in each case. The Ki result in assay [1] was “Not Active”.
In the case of `CC(N)Cc1c[nH]c2ccc(OCc3cccs3)cc12` (stereo not drawn) [BW-723C86], the 50% inhibitory concentration (IC50) result (in assay [1]; at Thromboxane-A synthase (platelet); in assay [2]; in assay [3] (platelet); in assay [4] (reticulocytes); on Melanocortin receptor 3) was “Not Active” in each case. The IC50 entry in assay [5] (bti-tn-5b1-4) and in assay [6] was “Not Active” throughout. For the same compound, the Ki entry in assay [1] is listed as “Not Active”.
Take `c1ccc2c(c1)Nc1ccccc1S2` [PHENOTHIAZINE]: the 50% inhibitory concentration (IC50) result in assay [1] is “Not Active”; on Thromboxane-A synthase (platelet), “Not Active”; in assay [2], “Not Active”; in assay [3] (read-out: IC50) it was 0.196 µM; in assay [4] (read-out: IC50), 4.64 µM; on Melanocortin receptor 3 it was “Not Active”. Moreover, the results for the IC50 in assay [5] (read-out: IC50) and in assay [6] were 0.592 µM and “Not Active”, respectively. In addition, the Ki entry in assay [1] is “Not Active”.
In the case of `ClC1=C(Cl)[C@]2(Cl)[C@@H]3[C@@H]4C[C@@H]([C@H]5O[C@@H]45)[C@@H]3[C@@]1(Cl)C2(Cl)Cl` [DIELDRIN], the half-inhibitory concentration (IC50) entry (in assay [1]; against Thromboxane-A synthase (platelet); in assay [2]; in assay [3] (platelet); in assay [4] (reticulocytes); against Melanocortin receptor 3) was “Not Active” throughout. Also, the IC50 result in assay [5] (bti-tn-5b1-4) and in assay [6] was “Not Active” in each case. Further, the Ki entry in assay [1] is reported as “Not Active”.
As for `CC(C)(c1ccc(O)cc1)c1ccc(O)cc1` [BISPHENOL A], the IC50 entry in assay [1] is “Not Active”; on Thromboxane-A synthase (platelet) it was “Not Active”; in assay [2], “Not Active”; in assay [3] (platelet), “Not Active”; in assay [4] (read-out: IC50), 1.3 µM; against Melanocortin receptor 3 it was “Not Active”. Moreover, the IC50 result in assay [5] (bti-tn-5b1-4) and in assay [6] was “Not Active” throughout. Moreover, the Ki result in assay [1] is recorded as “Not Active”.
With `CN(Cc1cc(Br)cc(Br)c1N)C1CCCCC1` [BROMHEXINE], the half-maximal inhibitory concentration (IC50) result (in assay [1]; on Thromboxane-A synthase (platelet); in assay [2]; in assay [3] (platelet); in assay [4] (reticulocytes); at Melanocortin receptor 3) was “Not Active” throughout. Also, the IC50 entry in assay [5] (bti-tn-5b1-4) and in assay [6] was “Not Active” throughout. The Ki result in assay [1] is recorded as “Not Active”.
On to `c1ccc(Cn2ccnc2)cc1`, for which the IC50 result was “Not Active” in assay [1]; 0.602 µM on Thromboxane-A synthase (read-out: IC50); “Not Active” in assay [2]; “Not Active” in assay [3] (platelet); “Not Active” in assay [4] (reticulocytes); “Not Active” against Melanocortin receptor 3. The IC50 result in assay [5] (bti-tn-5b1-4) and in assay [6] was “Not Active” each time. For the same compound, in assay [1], the Ki entry is “Not Active”.
For `CCO` [ALCOHOL], the concentration for half-maximal inhibition (IC50) result (in assay [1]; on Thromboxane-A synthase (platelet); in assay [2]; in assay [3] (platelet); in assay [4] (reticulocytes); against Melanocortin receptor 3) was “Not Active” throughout. The concentration for half-maximal inhibition (IC50) entry in assay [5] (bti-tn-5b1-4) and in assay [6] was “Not Active” each time. For the same compound, the Ki result in assay [1] was “Not Active”.
`CCN1CCN(C(=O)N[C@@H](C(=O)N[C@@H]2C(=O)N3[C@@H]2SC(C)(C)[C@@H]3C(=O)O)c2ccccc2)C(=O)C1=O` [PIPERACILLIN]: the concentration for half-maximal inhibition (IC50) entry (in assay [1]; on Thromboxane-A synthase (platelet); in assay [2]; in assay [3] (platelet); in assay [4] (reticulocytes); against Melanocortin receptor 3) was “Not Active” in each case. Further, the half-inhibitory concentration (IC50) result in assay [5] (bti-tn-5b1-4) and in assay [6] was “Not Active” in each case. Moreover, in assay [1], the Ki result is “Not Active”.
Consider `NC(=O)NC(=O)Cc1ccccc1` [PHENACEMIDE], for which the IC50 entry (in assay [1]; on Thromboxane-A synthase (platelet); in assay [2]; in assay [3] (platelet); in assay [4] (reticulocytes); against Melanocortin receptor 3) was “Not Active” throughout. The 50% inhibitory concentration (IC50) entry in assay [5] (bti-tn-5b1-4) and in assay [6] was “Not Active” throughout. Moreover, the Ki result in assay [1] is “Not Active”.
`CC(CN1c2ccccc2Sc2ccccc21)N(C)C` (stereo not drawn) [PROMETHAZINE]: the IC50 result (in assay [1]; against Thromboxane-A synthase (platelet); in assay [2]; in assay [3] (platelet); in assay [4] (reticulocytes); on Melanocortin receptor 3) was “Not Active” throughout. Further, the half-maximal inhibitory concentration (IC50) result in assay [5] (bti-tn-5b1-4) and in assay [6] was “Not Active” each time. The Ki result in assay [1] is “Not Active”.
For the compound `Nc1ccc(Cc2ccc(N)cc2)cc1`, the half-inhibitory concentration (IC50) entry (in assay [1]; against Thromboxane-A synthase (platelet); in assay [2]; in assay [3] (platelet); in assay [4] (reticulocytes); against Melanocortin receptor 3) was “Not Active” throughout. In addition, the half-maximal inhibitory concentration (IC50) result in assay [5] (bti-tn-5b1-4) and in assay [6] was “Not Active” throughout. Further, the Ki entry in assay [1] is reported as “Not Active”.
For the compound `CC[C@H]1OC(=O)[C@H](C)[C@@H](O[C@H]2C[C@@](C)(OC)[C@@H](O)[C@H](C)O2)[C@H](C)[C@@H](O[C@@H]2O[C@H](C)C[C@H](N(C)C)[C@H]2O)[C@](C)(O)C[C@@H](C)C(=O)[C@H](C)[C@@H](O)[C@]1(C)O` [ERYTHROMYCIN], the IC50 entry (in assay [1]; on Thromboxane-A synthase (platelet); in assay [2]; in assay [3] (platelet); in assay [4] (reticulocytes); at Melanocortin receptor 3) was “Not Active” in each case. Also, the IC50 entry in assay [5] (bti-tn-5b1-4) and in assay [6] was “Not Active” each time. Also, the Ki result in assay [1] is reported as “Not Active”.
